Results as given in patent US5461057A, “Hydro-ethano-indeno-pyridines” (priority 1994, dated 1995).

Columns and labels:
[1] = test system: histamine-induced dyspnea; assay: Bronchodilator (in vivo) Guinea Pig Dyspnea; conditions: oral
Description: Unanesthetized guinea pigs (250-350 g), fasted overnight were placed in individual closed aerosol chambers which were connected to a Monoghan Ultrasonic nebulizer. The nebulizer can deliver an ultrasonic fog of uniform particles in a range of 1-8 microns. A 0.1% solution of histamine is aerosolized into the chambers causing the guinea pigs to develop dyspnea. The test drug was given orally one hour before the histamine challenge and the onset of dyspnea was recorded. Saline control animals developed dyspnea within 90-120 seconds of aerosol exposure. […] The data was expressed as the number tested over the number survived. The model was sensitive to bronchodilator and H1 antihistamine activity. Further information relating this test can be obtained from the following two publications which are hereby incorporated by reference: Dungan, K. W. and Lish, P. M. J Allergy 32:139-151 (1961). and Lish, P. M., Robbins, S. I. and Petres E. L. J. Pharmacol. Exp. Therap. 153 L 1538 (1966 ).

[2] = test system: acetic acid-induced writhing; assay: Acetic Acid Writhing Test in Mice; format: in vivo, mouse; conditions: Mus musculus, po, read-out: WRITH ED50
Description: The blockade of writhing induced by the intraperitoneal injection of acetic acid is an established experimental animal model for the screening of antinociceptive drugs (drugs which prevent the appreciation or transmission of pain sensations).
The procedure for the Acetic Acid Writhing Test in Mice is set forth in Hendershot et al, J. Pharmacol. Exp. Therap. 125:237, (1959); Koster et al., Fed. Proc. 18:412, (1959); and international application PCT/US91/06705, filed 20 Sep. 1991, which are hereby incorporated by reference.
The results for this test are given below in the units of mg/kg which is also abbreviated in this specification as mpk. The results for this test are given as effective doses (ED50 's).

[3] = test system: LOX human melanoma cell adhesion to human fibronectin; assay: LOX melanoma cell adhesion to fibronectin; format: cell-based; conditions: Homo sapiens, LOX; for inhibition at 10 µM: read-out: % Inhibition at 10 μM; for inhibition at 50 µM: read-out: % Inhibition at 50 μM; for IC50: Table 4, 1 hour adhesion, read-out: LOX FN IC50
Description: (§1) Adhesion assays were run essentially as described previously (Pai et al., J. Biomed. Res. 2: 53, 1992). 96-well plates were coated with human fibronectin (140 ng/well), human vitronectin (75 ng/well), human collagen I (100 ng/well), human collagen IV (100 ng/well), human fibrinogen (1 μg/well), murine laminin (600 ng/well), or polylysine, and incubated overnight in a humidified 37° C. incubator. Excess fibronectin or other substrate was then removed and 0.2 ml of 2 mg/ml bovine serum albumin (BSA)in Dulbecco's phosphate-buffered saline (DPBS) was added to each well, incubated for 2 hours at 37° C., and removed. LOX human melanoma cells, M27 murine lung carcinoma cells or B16F10 mouse melanoma cells were detached from tissue culture flasks with RPMI medium containing 0.2M urea and 10 mM EDTA, and 0.18 ml of cells were added to each well to a final cell concentration of 1×10^5 cells/well. For inhibition studies 20 μl of 10× compound was added to the wells prior to cell addition. Cells were allowed to adhere for 1 hour at 37° C. The wells were then gently washed twice with 0.2 ml DPBS. The fluorescent dye calcein AM (Molecular Probes, Eugene Oreg.) in DPBS (0.1 ml of 1 μM) was added to each well, and the plates were incubated for 1 hour at room temperature. Adherent cells were quantitated by reading the fluorescence on a Cytofluor 2300 fluorescent plate reader (Millipore) at 485 nm excitation and 530 nm emission.
LOX FN-IC50 value for inhibition of adhesion of LOX human melanoma cells to fibronectin coated on a plastic surface.

[4] = test system: LOX human melanoma cell adhesion to polylysine; assay: LOX melanoma cell adhesion to polylysine; format: cell-based; conditions: read-out: Poly Lys IC50
Description: as §1

TBZ-induced ptosis = assay: Effects on tetrabenazine (TBZ)-induced ptosis in mice; format: in vivo, mouse; conditions: for ED50: Mus musculus, po
Description: Clinically active antidepressant drugs are known to block TBZ-induced ptosis in mice (See Psychosomatic Medicine, Nodine and Moyer, Eds. Lea and Febiger, Philadelphia, 1962, pp 683-90, which is hereby incorporated by reference). Activity in this test is used to predict anti-depressant activity in man.
The procedure for the TBZ-Induced Ptosis Test in Mice is set forth in Psychosomatic Medicine, Nodine and Moyer, Eds. Lea and Febiger, which is hereby incorporated by reference and in PCT/US91/06705, filed 20 Sep. 1991, which is mentioned above.
(§2) The results for this test are given below as ED50 's in the units of mg/kg.
TBZ refers to the test of effects on tetrabenazine induced ptosis in mice, p.o.;

metrazole = assay: Anti-metrazole test in mice; format: in vivo, mouse; conditions: Mus musculus, read-out: MTZ ED50
Description: The anti-metrazole test in mice was carried out as described in Everett et al, J. Pharmacol. Exp. Therap. 81:402-407 (1944); which is hereby incorporated by reference.
(§3) The results for this test are given below as ED50's in the units of mg/kg.

[5] = Calcein cytotoxicity assay; format: cell-based; conditions: human, lox melanoma cells; 2 hours, calcein AM assay; read-out: 2 Hr Tox LD50
Description: LOX human melanoma cells were detached from tissue culture flasks with RPMI medium containing 0.2M urea and 10 mM EDTA, and 0.18 ml of cells were added to each well to a final cell concentration of 5×10^4 cells/well. 20 μl of 10× compound was added to the wells prior to cell addition. Cells were incubated with the compound at 37° C. for 1 hour or 5 hour as indicated. Calcein AM in DPBS (0.02 ml of 5 μM) was added to each well, and the plates were incubated for an additional 1 hour at room temperature. Viable cells were quantitated by reading the fluorescence on a Cytofluor 2300 fluorescent plate reader at 485 nm excitation and 530 nm emission.

methamphetamine toxicity = assay: Methamphetamine toxicity test in mice; format: in vivo; conditions: Mus musculus, read-out: METHA ED50
Description: The methamphetamine toxicity test in mice was carried out as described in Burn et al, Arch. Int. Pharmacodyn 113:290-295, (1958); and Coscia et al, Arzneim-Forsch (Drug Research) 25:1436-1442, (1975); which are hereby incorporated by reference.
as §3
METHA refers to the methamphetamine toxicity test in mice;

pulmonary resistance = assay: Pulmonary Resistance in the Anesthetized Rat; format: in vivo; conditions: 0.5 mpk, i.v.; mean of 5 animals; % decrease in pre-drug baseline resistance
Description: Rats (400-500 g) anesthetized with dialurethane were surgically prepared with tracheal and esophageal catheters. These catheters were connected to pressure transducers for recording of air flow, tracheal and esophageal pressures. These pressures formed the basis for measurement of pulmonary resistance. Inhibition of pulmonary resistance is a reflection of bronchodilation.
All compounds were tested i. v. in 5 separate animals. All data are expressed in % decrease in the pre-drug baseline resistance and each number given is the mean of the 5 animals tested.
The model is sensitive to bronchodilator activity.
Further information relating this test can be obtained from the following publications which are hereby incorporated by reference: Comroe et al, J. Appl. Physio. 4:439-44 (1959); Dungan et al J. Pharmacol. Exp. Therap. 164:290-301(1968); and Mead, J. et al. J. Appl. Physio. 5:779-796 (1953).

[6] = test system: muricidal (mouse-killing) behavior; assay: Effects on muricidal behavior in rats; format: in vivo, rat; conditions: Rattus norvegicus, read-out: MUR ED50
Description: Blockade of muricidal (mouse-killing) behavior in rats is used as a measure of evaluating the anti-depressant activity of drugs, and the procedure for carrying out this test is set forth in Int. J. Neuro-pharmacal., 5, 405-411 (1966) are hereby incorporated by reference, and in PCT/US91/06705, filed 20 Sep. 1991, which is mentioned above.
as §2
MUR refers to the test on the effects on muricidal behavior in rats;

[7] = 100 mg/kg, one hour before histamine challenge

SMILES	DYSP survivors [1, 7]	ED50 [2]	inhibition at 10 µM [3]	inhibition at 50 µM [3]	IC50 [3]	IC50 [4]	ED50 (TBZ-induced ptosis)	ED50 (metrazole)	CC50 at 2 h [5]	ED50 (methamphetamine toxicity)	Pulmonary Resistance in Rats, % Inhibition (pulmonary resistance)	ED50 [6]	other results
CN1C2CCC1C1=C(C2)C(c2ccc(F)cc2)c2ccccc21 (stereo not shown) [W]	3/3	10.7 mg/kg	36.3%	100%	17.4 µM	78.3 µM	> 30 mg/kg	> 30 mg/kg	103 µM	8.9 mg/kg	21%	–	DYSP survivors ([1]; 10 mg/kg, one hour before histamine challenge): 1/3; DYSP survivors ([1]; 20 mg/kg, one hour before histamine challenge): 2/3; DYSP survivors ([1]; 50 mg/kg, one hour before histamine challenge): 2/3
COc1ccc(C2(O)c3ccccc3C3C4CCC(CC32)N4)cc1 (stereo not shown) [JJ]	–	> 30 mg/kg	10.1%	33.7%	–	–	> 30 mg/kg	> 30 mg/kg	–	> 30 mg/kg	–	–	responders at 50 mg/kg ([1]; Cavia porcellus, 1 h, 50 mg/kg, one hour before histamine challenge, read-out: DYSP survivors (converted)): 33.3%; responders at 100 mg/kg ([1]; Cavia porcellus, 1 h, 100 mg/kg, one hour before histamine challenge, read-out: DYSP survivors (converted)): 66.7%
COc1ccc(C2C3=C(c4ccccc42)C2CCC(C3)N2C)cc1OC (stereo not shown) [AA]	0/3	22.8 mg/kg	-30%	23.6%	–	–	> 30 mg/kg	> 30 mg/kg	–	> 30 mg/kg	6%	> 10 mg/kg	–
COc1ccc(C2C3=C(c4ccccc42)C2CCC(C3)N2C)cc1 (stereo not shown) [Y]	–	–	-1.2%	98.2%	21.6 µM	105 µM	0.35 mg/kg	–	63.6 µM	> 30 mg/kg	–	> 20 mg/kg	DYSP survivors ([1]; dose not given): 2/3
CN1C2CCC1C1C(=C(c3ccc(F)cc3)c3ccccc31)C2 (stereo not shown) [K]	3/3	–	27.6%	100%	15.5 µM	71.6 µM	> 30 mg/kg	> 30 mg/kg	116 µM	14.9 mg/kg	34%	–	DYSP survivors ([1]; 30 mg/kg, one hour before histamine challenge): 0/3; DYSP survivors ([1]; 60 mg/kg, one hour before histamine challenge): 1/3; observation in TBZ test (footnote c) (TBZ-induced ptosis; p.o., at the dose of 30 marked c): animals were ataxic and depressed at this dose
COc1ccc2c(c1)C(c1ccccc1)=C1CC3CCC(C12)N3C (stereo not shown) [V]	0/3	–	–	–	–	–	> 30 mg/kg	–	–	–	–	–	–
